Test results from patent publication US20250268799A1, “MEDIUM FOR WATER-FREE ROOT CANAL DISINFECTANT WITH HIGH FLUIDITY, DISINFECTANT USING SAME, AND USE THEREOF” (WENZHOU QINGCHENG HEALTHCARE TECH LTD., priority 2022, published 2025).

Experiments:
Water dispersion test = type: physicochemical; settings: 0.5% surfactant added to Paste A
Method: Add appropriate food-grade carmine dye to the above pastes, homogenize thoroughly with a homogenizer so that each paste can be squeezed out from a 25 G root canal irrigation needle, and divide into syringes for use.
S1: Prepare 23 150 mL beakers with similar diameters, fill them with water, and inject one drop (approximately 0.01 g) of each of the 23 pastes (A, B, C, D, E, F, G, H, A1-A15) into each beaker through a 25 G root canal irrigation needle (except G and H).
S2: Observe the color change immediately after preparation.

bacteria = settings: intracanal medicament for one week; cited from earlier work
Enterococcus faecalis = settings: in vitro direct contact; cited from earlier work

Compound	effect of surfactant on the dispersion of the paste in water (Water dispersion test)	reduction of bacteria (bacteria) [%]	contact time for complete eradication of Enterococcus faecalis (Enterococcus faecalis) [h]
Fatty Alcohol Polyoxyethylene Ether [AEO-9]	negative effects	–	–
CC(=O)O.CC(=O)O.NC(=N\CCCCCC/N=C(N)/N=C(\N)Nc1ccc(Cl)cc1)/N=C(\N)Nc1ccc(Cl)cc1 [CHX, Chlorhexidine Acetate]	best performance	–	–
Polyoxyethylene (60) Hydrogenated Castor Oil [RH60]	best performance	–	–
[Ca+2].[OH-].[OH-] [calcium hydroxide]	–	92.5	24
